14 molecules from patent publication US20250152585A1, “PHARMACEUTICAL COMPOUND” (Duke Street Bio Limited, priority 2022, published 2025) can be followed below.

A value given as a limit tells only on which side of the number the result lay.

T2 sequence (Q9UGN5 whole entry, the tested form may be a part): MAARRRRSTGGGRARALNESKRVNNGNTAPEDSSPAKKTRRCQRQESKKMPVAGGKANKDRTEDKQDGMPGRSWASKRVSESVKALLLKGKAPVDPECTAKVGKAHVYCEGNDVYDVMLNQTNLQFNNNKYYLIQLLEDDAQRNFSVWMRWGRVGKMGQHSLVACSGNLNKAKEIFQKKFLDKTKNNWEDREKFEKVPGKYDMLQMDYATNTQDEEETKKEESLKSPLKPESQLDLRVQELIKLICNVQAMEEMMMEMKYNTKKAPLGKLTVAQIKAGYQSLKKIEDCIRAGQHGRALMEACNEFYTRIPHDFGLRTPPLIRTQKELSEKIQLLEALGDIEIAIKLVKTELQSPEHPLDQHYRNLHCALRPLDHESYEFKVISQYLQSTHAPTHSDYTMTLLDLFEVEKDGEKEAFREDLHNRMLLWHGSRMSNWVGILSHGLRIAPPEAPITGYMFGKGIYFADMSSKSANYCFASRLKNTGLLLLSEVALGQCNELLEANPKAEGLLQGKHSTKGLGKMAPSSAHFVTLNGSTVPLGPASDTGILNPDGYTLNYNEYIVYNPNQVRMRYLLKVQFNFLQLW

For the first experiment, the target named is T1, full length N-terminally FLAG-tagged PARP1 (Homo sapiens, UniProt P09874). Nature of the experiment: PARP1 probe displacement HTRF assay. Conditions: PARP1 over PARP2, ratio Kd (PARP2)/Kd (PARP1), probe displacement HTRF.
T1 sequence (P09874 whole entry): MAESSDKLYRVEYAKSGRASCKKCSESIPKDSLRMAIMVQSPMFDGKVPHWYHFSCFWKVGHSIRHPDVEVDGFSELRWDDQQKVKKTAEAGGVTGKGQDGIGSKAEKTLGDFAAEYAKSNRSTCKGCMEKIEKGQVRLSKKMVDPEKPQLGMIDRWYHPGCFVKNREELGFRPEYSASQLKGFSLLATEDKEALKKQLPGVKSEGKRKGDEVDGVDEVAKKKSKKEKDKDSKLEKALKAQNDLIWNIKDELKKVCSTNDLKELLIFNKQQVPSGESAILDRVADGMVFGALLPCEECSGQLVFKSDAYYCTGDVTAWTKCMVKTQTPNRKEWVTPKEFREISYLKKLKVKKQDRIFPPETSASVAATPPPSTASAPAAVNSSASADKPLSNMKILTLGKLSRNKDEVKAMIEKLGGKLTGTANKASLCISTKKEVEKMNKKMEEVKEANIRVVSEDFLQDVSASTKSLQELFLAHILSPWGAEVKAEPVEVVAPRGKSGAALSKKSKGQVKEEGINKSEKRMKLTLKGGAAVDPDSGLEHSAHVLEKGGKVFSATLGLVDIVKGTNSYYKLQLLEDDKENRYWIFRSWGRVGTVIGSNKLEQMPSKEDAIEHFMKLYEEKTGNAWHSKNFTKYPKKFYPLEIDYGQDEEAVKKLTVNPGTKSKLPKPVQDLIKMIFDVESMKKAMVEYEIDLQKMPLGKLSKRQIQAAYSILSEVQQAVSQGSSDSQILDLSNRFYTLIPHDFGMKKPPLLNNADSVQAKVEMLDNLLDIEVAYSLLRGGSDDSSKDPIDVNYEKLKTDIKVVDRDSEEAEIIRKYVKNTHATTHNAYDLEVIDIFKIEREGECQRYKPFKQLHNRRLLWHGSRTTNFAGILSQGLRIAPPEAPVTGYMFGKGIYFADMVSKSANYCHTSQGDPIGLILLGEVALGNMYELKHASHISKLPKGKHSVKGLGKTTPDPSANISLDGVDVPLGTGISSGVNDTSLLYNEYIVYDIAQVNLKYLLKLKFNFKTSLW
Turning to `CNC(=O)c1ccc(N2CCC(N3CCC(c4cnc(C(F)(F)F)c(=O)[nH]4)C3)CC2)cn1` (single isomer, unassigned) [Compound 279a], the Selectivity result was “+ (+ indicates a value of 10 to less than 50)”.
Still for that read-out and setting: next, `CNC(=O)c1ccc(N2CCC(N3CCC(c4cnc(C(F)(F)F)c(=O)[nH]4)C3)CC2)cn1` (single isomer, unassigned) [Compound 279b]: “− (− indicates a value of less than 10)”; `CNC(=O)c1ccc(N2CCC(N3CCC(c4cc5[nH]nc(C(F)(F)F)c5c(=O)[nH]4)C3)CC2)c(F)n1` (single isomer, unassigned) [Compound 280a]: “++ (++ indicates a value of 50 to less than 100)”; `CNC(=O)c1ccc(N2CCC(N3CCC(c4cc5[nH]nc(C(F)(F)F)c5c(=O)[nH]4)C3)CC2)c(F)n1` (single isomer, unassigned) [Compound 280b]: “++ (++ indicates a value of 50 to less than 100)”.
For the molecule `CNC(=O)c1ccc(N2CCC(N3CCC(c4cc5cccc(F)c5c(=O)[nH]4)C3)CC2)cc1F` (single isomer, unassigned) [Compound 281a], the Selectivity result is on record as “+ (+ indicates a value of 10 to less than 50)”.
The same measure, in the same setting: in the case of `CNC(=O)c1ccc(N2CCC(N3CCC(c4cc5cccc(F)c5c(=O)[nH]4)C3)CC2)cc1F` (single isomer, unassigned) [Compound 281b] it was “− (− indicates a value of less than 10)”; in that of `CNC(=O)c1ccc(N2CCC(N3CCC(c4nc5c(c(=O)[nH]4)CCC5)C3)CC2)cn1` (single isomer, unassigned) [Compound 283a], “+ (+ indicates a value of 10 to less than 50)”.
The same measure, in the same setting: next, `CNC(=O)c1ccc(N2CCC(N3CCC(c4nc5c(c(=O)[nH]4)CCC5)C3)CC2)cn1` (single isomer, unassigned) [Compound 283b]: “+++ (+++ indicate a value of at least 100)”; `CCc1ccc(C2CCN(C3CCN(c4ccc(C(=O)NCC(F)(F)F)nc4F)CC3)C2)[nH]c1=O` (single isomer, unassigned) [Compound 285b]: “+++ (+++ indicate a value of at least 100)”; `CNC(=O)c1ccc(N2CCC(N3CCC(c4cnc(CC(F)(F)F)c(=O)[nH]4)C3)CC2)cn1` (single isomer, unassigned) [Compound 287a]: “++ (++ indicates a value of 50 to less than 100)”.
Consider `CNC(=O)c1ccc(N2CCC(N3CCC(c4cnc(CC(F)(F)F)c(=O)[nH]4)C3)CC2)cn1` (single isomer, unassigned) [Compound 287b], for which the Selectivity entry is reported as “− (− indicates a value of less than 10)”.
As to `CC(=O)Nc1ccc(N2CCC(N3CCC(c4cc5ccccc5c(=O)[nH]4)C3)CC2)cc1` (single isomer, unassigned) [Compound 289a], the Selectivity result is given as “− (− indicates a value of less than 10)”.
The same measure, in the same setting: in the case of `CC(=O)Nc1ccc(N2CCC(N3CCC(c4cc5ccccc5c(=O)[nH]4)C3)CC2)cc1` (single isomer, unassigned) [Compound 289b] it was “+ (+ indicates a value of 10 to less than 50)”; in that of `CS(=O)(=O)Nc1ccc(N2CCC(N3CCC(c4nc5ccccc5c(=O)[nH]4)C3)CC2)cn1` (single isomer, unassigned) [Compound 291a], “+ (+ indicates a value of 10 to less than 50)”.

The same experiment, now with this note: read-out: PARP1 HTRF; binned Kd, probe displacement HTRF.
For the molecule `CNC(=O)c1ccc(N2CCC(N3CCC(c4cnc(C(F)(F)F)c(=O)[nH]4)C3)CC2)cn1` (single isomer, unassigned) [Compound 279a], the Kd is 100 to 1000 nM.
Still for that read-out and setting: in the case of `CNC(=O)c1ccc(N2CCC(N3CCC(c4cnc(C(F)(F)F)c(=O)[nH]4)C3)CC2)cn1` (single isomer, unassigned) [Compound 279b] it was 1000 to 10000 nM; in that of `CNC(=O)c1ccc(N2CCC(N3CCC(c4cc5[nH]nc(C(F)(F)F)c5c(=O)[nH]4)C3)CC2)c(F)n1` (single isomer, unassigned) [Compound 280a], 10 to 100 nM.
On the same count and under the same terms, in the case of `CNC(=O)c1ccc(N2CCC(N3CCC(c4cc5[nH]nc(C(F)(F)F)c5c(=O)[nH]4)C3)CC2)c(F)n1` (single isomer, unassigned) [Compound 280b] it was < 10 nM; in that of `CNC(=O)c1ccc(N2CCC(N3CCC(c4cc5cccc(F)c5c(=O)[nH]4)C3)CC2)cc1F` (single isomer, unassigned) [Compound 281a], < 10 nM.
The same measure, in the same setting: in the case of `CNC(=O)c1ccc(N2CCC(N3CCC(c4cc5cccc(F)c5c(=O)[nH]4)C3)CC2)cc1F` (single isomer, unassigned) [Compound 281b] it was 100 to 1000 nM.
`CNC(=O)c1ccc(N2CCC(N3CCC(c4nc5c(c(=O)[nH]4)CCC5)C3)CC2)cn1` (single isomer, unassigned) [Compound 283a]: the Kd lay within 100 to 1000 nM.
As for `CNC(=O)c1ccc(N2CCC(N3CCC(c4nc5c(c(=O)[nH]4)CCC5)C3)CC2)cn1` (single isomer, unassigned) [Compound 283b], the Kd was < 10 nM.
On the same count and under the same terms, in the case of `CCc1ccc(C2CCN(C3CCN(c4ccc(C(=O)NCC(F)(F)F)nc4F)CC3)C2)[nH]c1=O` (single isomer, unassigned) [Compound 285b] it was < 10 nM; in that of `CNC(=O)c1ccc(N2CCC(N3CCC(c4cnc(CC(F)(F)F)c(=O)[nH]4)C3)CC2)cn1` (single isomer, unassigned) [Compound 287a], 10 to 100 nM.
Turning to `CNC(=O)c1ccc(N2CCC(N3CCC(c4cnc(CC(F)(F)F)c(=O)[nH]4)C3)CC2)cn1` (single isomer, unassigned) [Compound 287b], the Kd lay in the range of 1000 to 10000 nM.
Take `CC(=O)Nc1ccc(N2CCC(N3CCC(c4cc5ccccc5c(=O)[nH]4)C3)CC2)cc1` (single isomer, unassigned) [Compound 289a]: the Kd lay in the range of 100 to 1000 nM.
On to `CC(=O)Nc1ccc(N2CCC(N3CCC(c4cc5ccccc5c(=O)[nH]4)C3)CC2)cc1` (single isomer, unassigned) [Compound 289b], for which the Kd lay in the range of 10 to 100 nM.
On the same count and under the same terms, next, `CS(=O)(=O)Nc1ccc(N2CCC(N3CCC(c4nc5ccccc5c(=O)[nH]4)C3)CC2)cn1` (single isomer, unassigned) [Compound 291a]: 100 to 1000 nM.

The next experiment has as its target T2, N-terminally FLAG-tagged PARP2 (amino acids 1-583) (Homo sapiens, UniProt Q9UGN5).
T2 construct: N-terminally FLAG-tagged PARP2 (amino acids 1-583)
Description: PARP2 probe displacement HTRF assay. The format is binding. Conditions: binned Kd, probe displacement HTRF. On the procedure:
Data analysis was performed identical as for PARP1.
(In general: In TR-FRET formats the signal depends on donor and acceptor labels being close together.)
`CNC(=O)c1ccc(N2CCC(N3CCC(c4cnc(C(F)(F)F)c(=O)[nH]4)C3)CC2)cn1` (single isomer, unassigned) [Compound 279a]: the Kd was > 10000 nM.
The same measure, in the same setting: next, `CNC(=O)c1ccc(N2CCC(N3CCC(c4cnc(C(F)(F)F)c(=O)[nH]4)C3)CC2)cn1` (single isomer, unassigned) [Compound 279b]: > 10000 nM.
The molecule `CNC(=O)c1ccc(N2CCC(N3CCC(c4cc5[nH]nc(C(F)(F)F)c5c(=O)[nH]4)C3)CC2)c(F)n1` (single isomer, unassigned) [Compound 280a] showed a Kd of 1000 to 10000 nM.
`CNC(=O)c1ccc(N2CCC(N3CCC(c4cc5[nH]nc(C(F)(F)F)c5c(=O)[nH]4)C3)CC2)c(F)n1` (single isomer, unassigned) [Compound 280b] displayed a Kd of 10 to 100 nM.
Still for that read-out and setting: next, `CNC(=O)c1ccc(N2CCC(N3CCC(c4cc5cccc(F)c5c(=O)[nH]4)C3)CC2)cc1F` (single isomer, unassigned) [Compound 281a]: 10 to 100 nM.
The same measure, in the same setting: next, `CNC(=O)c1ccc(N2CCC(N3CCC(c4cc5cccc(F)c5c(=O)[nH]4)C3)CC2)cc1F` (single isomer, unassigned) [Compound 281b]: 100 to 1000 nM; `CNC(=O)c1ccc(N2CCC(N3CCC(c4nc5c(c(=O)[nH]4)CCC5)C3)CC2)cn1` (single isomer, unassigned) [Compound 283a]: > 10000 nM.
Regarding `CNC(=O)c1ccc(N2CCC(N3CCC(c4nc5c(c(=O)[nH]4)CCC5)C3)CC2)cn1` (single isomer, unassigned) [Compound 283b], the Kd was 1000 to 10000 nM.
For `CCc1ccc(C2CCN(C3CCN(c4ccc(C(=O)NCC(F)(F)F)nc4F)CC3)C2)[nH]c1=O` (single isomer, unassigned) [Compound 285b], the Kd was > 10000 nM.
With `CNC(=O)c1ccc(N2CCC(N3CCC(c4cnc(CC(F)(F)F)c(=O)[nH]4)C3)CC2)cn1` (single isomer, unassigned) [Compound 287a], the Kd was > 10000 nM.
The same measure, in the same setting: next, `CNC(=O)c1ccc(N2CCC(N3CCC(c4cnc(CC(F)(F)F)c(=O)[nH]4)C3)CC2)cn1` (single isomer, unassigned) [Compound 287b]: > 10000 nM; `CC(=O)Nc1ccc(N2CCC(N3CCC(c4cc5ccccc5c(=O)[nH]4)C3)CC2)cc1` (single isomer, unassigned) [Compound 289a]: 1000 to 10000 nM.
On the same count and under the same terms, next, `CC(=O)Nc1ccc(N2CCC(N3CCC(c4cc5ccccc5c(=O)[nH]4)C3)CC2)cc1` (single isomer, unassigned) [Compound 289b]: 100 to 1000 nM; `CS(=O)(=O)Nc1ccc(N2CCC(N3CCC(c4nc5ccccc5c(=O)[nH]4)C3)CC2)cn1` (single isomer, unassigned) [Compound 291a]: 1000 to 10000 nM.

Another experiment has as its target T1, full length N-terminally FLAG-tagged PARP1. Description: PARP1 biochemical DELFIA assay (auto-PARylation). Also on record: recombinant full length human N-terminally FLAG-tagged PARP1. Conditions: binned IC50, biochemical auto-PARylation assay.
As for `CNC(=O)c1ccc(N2CCC(N3CCC(c4cnc(C(F)(F)F)c(=O)[nH]4)C3)CC2)cn1` (single isomer, unassigned) [Compound 279a], the IC50 (as a rule, the concentration needed to halve the response being measured) lay in the range of 100 to 1000 nM.
Turning to `CNC(=O)c1ccc(N2CCC(N3CCC(c4cnc(C(F)(F)F)c(=O)[nH]4)C3)CC2)cn1` (single isomer, unassigned) [Compound 279b], the IC50 lay within 1000 to 10000 nM.
Still for that read-out and setting: next, `CNC(=O)c1ccc(N2CCC(N3CCC(c4cc5[nH]nc(C(F)(F)F)c5c(=O)[nH]4)C3)CC2)c(F)n1` (single isomer, unassigned) [Compound 280a]: 10 to 100 nM; `CNC(=O)c1ccc(N2CCC(N3CCC(c4cc5[nH]nc(C(F)(F)F)c5c(=O)[nH]4)C3)CC2)c(F)n1` (single isomer, unassigned) [Compound 280b]: < 10 nM; `CNC(=O)c1ccc(N2CCC(N3CCC(c4cc5cccc(F)c5c(=O)[nH]4)C3)CC2)cc1F` (single isomer, unassigned) [Compound 281a]: < 10 nM.
For `CNC(=O)c1ccc(N2CCC(N3CCC(c4cc5cccc(F)c5c(=O)[nH]4)C3)CC2)cc1F` (single isomer, unassigned) [Compound 281b], the IC50 was in the range of 100 to 1000 nM.
Take `CNC(=O)c1ccc(N2CCC(N3CCC(c4nc5c(c(=O)[nH]4)CCC5)C3)CC2)cn1` (single isomer, unassigned) [Compound 283a]: the half-inhibitory concentration (IC50) was 100 to 1000 nM.
The same measure, in the same setting: next, `CNC(=O)c1ccc(N2CCC(N3CCC(c4nc5c(c(=O)[nH]4)CCC5)C3)CC2)cn1` (single isomer, unassigned) [Compound 283b]: < 10 nM.
`CCc1ccc(C2CCN(C3CCN(c4ccc(C(=O)NCC(F)(F)F)nc4F)CC3)C2)[nH]c1=O` (single isomer, unassigned) [Compound 285b]: the half-inhibitory concentration (IC50) was < 10 nM.
Still for that read-out and setting: next, `CNC(=O)c1ccc(N2CCC(N3CCC(c4cnc(CC(F)(F)F)c(=O)[nH]4)C3)CC2)cn1` (single isomer, unassigned) [Compound 287a]: 10 to 100 nM; `CNC(=O)c1ccc(N2CCC(N3CCC(c4cnc(CC(F)(F)F)c(=O)[nH]4)C3)CC2)cn1` (single isomer, unassigned) [Compound 287b]: 1000 to 10000 nM; `CC(=O)Nc1ccc(N2CCC(N3CCC(c4cc5ccccc5c(=O)[nH]4)C3)CC2)cc1` (single isomer, unassigned) [Compound 289a]: 100 to 1000 nM.
With `CC(=O)Nc1ccc(N2CCC(N3CCC(c4cc5ccccc5c(=O)[nH]4)C3)CC2)cc1` (single isomer, unassigned) [Compound 289b], the IC50 was < 10 nM.
Still for that read-out and setting: next, `CS(=O)(=O)Nc1ccc(N2CCC(N3CCC(c4nc5ccccc5c(=O)[nH]4)C3)CC2)cn1` (single isomer, unassigned) [Compound 291a]: 10 to 100 nM.
